From PMC9025336 (Antibiotics, 2022)
Values after ≈ are worked out from the molar mass of the structure shown. Square brackets hold non-standard residues; d marks the D form. Ends that are not written are not given here. Peptide text beside a SMILES is read from it.

What was measured:
[1] = test system: E. coli Rosetta DE3 pLysS; assay: MIC, liquid broth microdilution; type: cell-based, Escherichia coli; conditions: 25% MHBII medium, 7.5 × 10^6 CFU/mL, 37 °C, 20 ± 2 h, turbidity 600 nm, at least twice in triplicate
Protocol: (§1) The minimal inhibitory concentrations (MIC) were determined at least twice in triplicate using a liquid broth microdilution assay in sterile 96-well plates and a total volume of 100 μL per well. Aqueous peptide solutions were serially 2-fold diluted in 25% MHBII or 33% TSB medium in a volume of 50 µL. An overnight culture was diluted in 25% MHBII or 33% TSB medium to 1.5 × 10^7 CFU/mL, and an aliquot of 50 μL was added to each well. The final cell count in each well was 7.5 × 10^6 CFU/mL. The plates were incubated at 37 °C for 20 ± 2 h. The turbidity of each well was measured at a wavelength of 600 nm. The MIC was defined as the lowest peptide concentration where the turbidity was identical to medium only.

E. coli BW25113 = type: cell-based, Escherichia coli; conditions: BW25113, 2 h
Protocol: as §1, with “The plates were incubated at 37 °C for 20 ± 2 h.” left out

[2] = test system: 70S ribosome extract of E. coli Rosetta DE3 pLysS; assay: Fluorescence polarization, Kd of cf-labeled peptides; type: binding, Escherichia coli; conditions: determined for the cf-labeled peptide, 28 °C, 90 min, 95% confidence interval in brackets, triplicate on at least two days, read-out: Kd, Ros
Protocol: (§2) E. coli BW25113 and E. coli Rosetta pLysS were cultivated in LB medium and harvested at an OD600 of ~4 by centrifugation (5000× g, 30 min, 4 °C). The cell pellets were washed by resuspension in ribosome preparation buffer (20 mmol/L Hepes-KOH, 6 mmol/L MgCl2, 30 mmol/L NH4Cl, pH 7.6, 4°C) and subsequent centrifugation (5000× g, 30 min, 4 °C). Cell pellets were suspended in ribosome preparation buffer ([…]) containing freshly added 2-mercapotethanol (4 mmol/L). Lysozyme was added to the resuspended cells and incubated on ice for 30 min. The cell suspension was disrupted six times using a FastPrep-24^TM 5G instrument (MP Biomedicals, Solon, OH, USA) with BigPrep 50 mL setting (40 s, 4.0 m/s), incubated with DNase I (5 mL/L) on ice for one hour and centrifuged (16,000× g, 30 min, 4 °C). The cell debris was removed from the supernatant by centrifugation (32,000× g, 60 min, 4 °C), and the supernatant was centrifuged again (165,000× g, 17 h, 4 °C). The pellet was resuspended in ribosome preparation buffer (0.1 mL per g cell pellet) to obtain the 70S ribosome extract and stored at −80 °C. The ribosome concentration was estimated by recording the absorbance at 260 nm (1 AU for a ribosome concentration of 28 nmol/L). The molecular weight of the 70S E. coli ribosome was assumed to be 2.3 MDa.
(§3) Kd was determined using a ribosome extract and cf-labeled peptides in ribosome preparation buffer. Briefly, black 384-well plates (flat bottom, Greiner Bio-One GmbH) were blocked with casein (0.5%, w/v) in phosphate buffer containing 0.05% (v/v) Tween 20 at 4 °C overnight and washed three times with phosphate buffer. A 2-fold dilution series of the ribosome extract (20 μL per well) in ribosome preparation buffer was prepared in a black 384-well plate (23 dilution steps). The cf-labeled peptide was dissolved in ribosome preparation buffer (20 μL, 40 nmol/L), added to each well, and incubated at 28 ± 1 °C. After 90 min, the fluorescence polarization was measured on a PARADIGMTM microplate reader (Beckman Coulter, Salzburg, Austria) in the top read position (λexc = 485 nm, λem = 535 nm) in triplicate on at least two different days. Data were fitted to a nonlinear, dose–response logistical transition equation [y= y0 + a/(1 + (x/x0)b)] using the Levenberg–Marquardt algorithm, with dissociation constants (Kd) represented by the x0 coefficients (GraphPad Prism for Windows v. 5.02, San Diego, CA, USA).

[3] = test system: 70S ribosome extract of E. coli BW25113; assay: as above; type: binding, Escherichia coli
Protocol: as §2, §3

[4] = molecular target: BW25113 ribosome extract, ribosomal binding site of Onc112; assay: Fluorescence polarization competition against cf-Onc112 (Ki); set-up: species or system Escherichia coli; conditions: unlabeled PrAMP against cf-labeled Onc112, calculated from IC50, 95% confidence interval in brackets
Protocol: as §2
(§4) Ki was determined for ribosome extracts using cf-labeled and unlabeled peptides in ribosome preparation buffer. Black 384-well plates were prepared as described above. Unlabeled peptides or antibiotics (20 µL, 656 µmol/L) were added and 2-fold serially diluted in 23 wells in ribosome preparation buffer. A ribosome solution was prepared by adjusting the ribosome concentration to ~90% of the upper Kd plateau obtained for the cf-labeled peptide to be studied and added to each well (10 µL). […] The fluorescence polarization was measured on a PARADIGMTM microplate reader in the top read position (λexc = 485 nm, λem = 535 nm) in triplicate on at least two different days. […] Inhibition constants, Ki, were calculated as described by Mathias and Jung.

[5] = molecular target: BW25113 ribosome extract, ribosomal binding site of Api137; assay: Fluorescence polarization competition against cf-Api137 (Ki); set-up: species or system Escherichia coli; conditions: unlabeled PrAMP against cf-labeled Api137, calculated from IC50, 95% confidence interval in brackets
Protocol: as §2, §4

[6] = test system: 70S ribosome, ribosomal binding site of Api805; assay: Fluorescence polarization competition with cf-Api805; set-up: species or system Escherichia coli; conditions: Figure S2, twice in triplicate
Protocol: Ki was determined for ribosome extracts using cf-labeled and unlabeled peptides in ribosome preparation buffer. Black 384-well plates were prepared as described above. Unlabeled peptides or antibiotics (20 μL, 656 μmol/L) were added and 2-fold serially diluted in 23 wells in ribosome preparation buffer. […] The fluorescence polarization was measured on a […] microplate reader in the top read position (λexc = 485 nm, λem = 535 nm) in triplicate on at least two different days. […] Inhibition constants, Ki, were calculated as described by Mathias and Jung. page 9: 140 140 120 120 100 100 80 80 60 60 40 40 […]. […]. […] 0 0 -20 -20 10 -2 1 10 2 10 4 10 6 10 -2 1 10 2 10 4 10 6 Pept ide Concent r at ion [ nM] Pept ide Concent r at ion [ nM] 140 140 120 120 100 100 80 80 60 60 40 40 20 Chlor […] ol vs. […] -20 -20 10 -2 1 10 2 10 4 10 6 10 -2 1 10 2 10 4 10 6 Ant ibiot ic Concent r at ion [ nM] Antibiotic Concentration [nM] 140 120 100 80 60 40 […] -20 10 -2 1 10 2 10 4 10 6 Ant ibiot ic Concent r at ion [ nM] Figure S2. […] tested as control in competition with Api137 or erythromycin. Experiments were done twice in triplicates. Error bars show the standard deviation of all six replicates. The horizontal dotted line separates positive and negative ranges on the Y-axis. - S9 - (also on this page, place not known: […]

[7] = molecular target: 70S ribosome extract of E. coli BW25113 (E. coli BW25113 (endogenous)); assay: fluorescence polarisation; 2-fold dilution series of the ribosome extract (23 steps) mixed with cf-labeled peptide (20 µL, 40 nmol/L) in ribosome preparation buffer (20 mmol/L Hepes-KOH, 6 mmol/L MgCl2, 30 mmol/L NH4Cl, pH 7.6); 28 ± 1 °C, 90 min; Kd = x0 of a dose-response fit
[8] = molecular target: 70S ribosome extract of E. coli Rosetta DE3 pLysS (E. coli Rosetta DE3 pLysS (endogenous)); assay: as above
[9] = molecular target: 70S ribosome extract of E. coli BW25113 (E. coli BW25113 (endogenous)); assay: fluorescence polarisation; competition: unlabeled peptide (2-fold series from 656 µmol/L) pre-incubated with BW25113 ribosome extract (28 °C, 90 min), then cf-Api137 (10 µL, 80 nmol/L) added (28 °C, 90 min); ribosome preparation buffer; Ki calculated from IC50
[10] = molecular target: 70S ribosome extract of E. coli BW25113 (E. coli BW25113 (endogenous)); assay: fluorescence polarisation; competition: unlabeled peptide (2-fold series from 656 µmol/L) pre-incubated with BW25113 ribosome extract (28 °C, 90 min), then cf-Onc112 (10 µL, 80 nmol/L) added (28 °C, 90 min); ribosome preparation buffer; Ki calculated from IC50

CC[C@H](C)[C@H](NC(=O)[C@@H]1CCCN1C(=O)[C@H](CCCNC(=N)N)NC(=O)[C@H](CC(N)=O)NC(=O)[C@H](CC(N)=O)NC(=O)CN)C(=O)N[C@@H](Cc1ccc(O)cc1)C(=O)N[C@H](C(=O)N1CCC[C@H]1C(=O)N[C@@H](CCCNC(=N)N)C(=O)N1CCC[C@H]1C(=O)N[C@@H](CCCNC(=N)N)C(=O)N1CCC[C@H]1C(=O)N1CCC[C@H]1C(=O)N[C@@H](Cc1c[nH]cn1)C(=O)N1CCC[C@H]1C(=O)N[C@@H](CCCNC(=N)N)C(=O)N[C@@H](CC(C)C)C(=O)O)[C@@H](C)CC [Api801] (H-GNNRPIYIPRPRPPHPRL-OH)
MIC, Ros [1]: 4 µg/mL (≈ 1.86 µM)
MIC, BW (E. coli BW25113): 16 µg/mL (≈ 7.44 µM)

CC[C@H](C)[C@H](NC(=O)[C@@H](CCCNC(=N)N)NC(=O)[C@H](CCCNC(=N)N)NC(=O)[C@@H]1CCCN1C(=O)[C@@H]1CCCN1C(=O)[C@H](CCCNC(=N)N)NC(=O)[C@@H]1CCCN1C(=O)[C@H](CCCNC(=N)N)NC(=O)[C@@H]1CCCN1C(=O)[C@H](CC(C)C)NC(=O)[C@H](Cc1ccc(O)cc1)NC(=O)[C@@H]1CCCN1C(=O)[C@@H]1CCCN1C(=O)[C@H](CCCCN)NC(=O)[C@H](CC(=O)O)NC(=O)[C@@H](N)C(C)C)C(=O)N[C@@H](Cc1ccc(O)cc1)C(=O)N[C@@H](CC(N)=O)C(=O)N[C@H](CCCNC(=N)N)C(N)=O [Onc112] (H-VDKPPYLPRPRPPR[dR]IYN[dR]-NH2)
Kd [2]: 51 nM
Kd ([3]; determined for the cf-labeled peptide, BW25113 ribosome extract, 28 °C, 90 min, 95% confidence interval in brackets, triplicate on at least two days, read-out: Kd, BW): 27 nM
Ki [4]: 8 nM
MIC, Ros [1]: 4 µg/mL (≈ 1.67 µM)
MIC, BW (E. coli BW25113): 4 µg/mL (≈ 1.67 µM)
Ki [5]: 606 nM

O=C(N[C@H](CO)[C@H](O)c1ccc([N+](=O)[O-])cc1)C(Cl)Cl [chloramphenicol]
inhibition of the binding of cf-labeled Api805 [6]: none inhibited

CC[C@H]1OC(=O)[C@H](C)[C@@H](O[C@H]2C[C@@](C)(OC)[C@@H](O)[C@H](C)O2)[C@H](C)[C@@H](O[C@@H]2O[C@H](C)C[C@H](N(C)C)[C@H]2O)[C@](C)(O)C[C@@H](C)C(=O)[C@H](C)[C@@H](O)[C@]1(C)O [erythromycin]
inhibition of the binding of cf-labeled Api805 [6]: none inhibited

NC[C@H]1O[C@H](O[C@H]2[C@H](O)[C@@H](O[C@H]3O[C@H](CO)[C@@H](O)[C@H](N)[C@H]3O)[C@H](N)C[C@@H]2N)[C@H](O)[C@@H](O)[C@@H]1O [kanamycin]
inhibition of the binding of cf-labeled Api805 [6]: none inhibited

cf-Api88 (peptide)
Kd [7]: 906 nM

cf-Api137 (peptide)
Kd [7]: 382 nM
Kd [8]: 198 nM

cf-Api805: Api805 labeled with 5(6)-carboxyfluorescein at the N-terminus ({5(6)‑carboxyfluorescein}-GNNRPIYIPRPRPPHPRPIRV-OH)
Kd values of cf-labeled peptides, in words ([3]; 70S ribosome, refers to Table 2): nanomolar range

GNNRPIYIPRPRPPHPRL-OH [Api801]
Ki [9]: 2 nM
Ki [10]: 247 nM

VDKPPYLPRPRPPR[dR]IYN[dR]-NH2 [Onc112]
Ki [9]: 606 nM
Ki [10]: 8 nM

{5(6)‑carboxyfluorescein}-GNNRPIYIPRPRPPHPRPIRV-OH [cf-Api805]
Kd [7]: 557 nM
Kd [8]: 515 nM

{5(6)‑carboxyfluorescein}-VDKPPYLPRPRPPR[dR]IYN[dR]-NH2 [cf-Onc112]
Kd [7]: 27 nM
Kd [8]: 51 nM
